The source of these data is PMC11436701 (Scientific Reports, 2024).

This experiment deals with AChE (Electrophorus electricus, 220 U·mg^-1) (Electrophorus electricus, UniProt O42275). Nature of the experiment: modified Ellman assay, […] nm. The class given is biochemical.

Each structure is given as a SMILES string.

Chain of AChE (Electrophorus electricus, 220 U·mg^-1) (O42275 24-633): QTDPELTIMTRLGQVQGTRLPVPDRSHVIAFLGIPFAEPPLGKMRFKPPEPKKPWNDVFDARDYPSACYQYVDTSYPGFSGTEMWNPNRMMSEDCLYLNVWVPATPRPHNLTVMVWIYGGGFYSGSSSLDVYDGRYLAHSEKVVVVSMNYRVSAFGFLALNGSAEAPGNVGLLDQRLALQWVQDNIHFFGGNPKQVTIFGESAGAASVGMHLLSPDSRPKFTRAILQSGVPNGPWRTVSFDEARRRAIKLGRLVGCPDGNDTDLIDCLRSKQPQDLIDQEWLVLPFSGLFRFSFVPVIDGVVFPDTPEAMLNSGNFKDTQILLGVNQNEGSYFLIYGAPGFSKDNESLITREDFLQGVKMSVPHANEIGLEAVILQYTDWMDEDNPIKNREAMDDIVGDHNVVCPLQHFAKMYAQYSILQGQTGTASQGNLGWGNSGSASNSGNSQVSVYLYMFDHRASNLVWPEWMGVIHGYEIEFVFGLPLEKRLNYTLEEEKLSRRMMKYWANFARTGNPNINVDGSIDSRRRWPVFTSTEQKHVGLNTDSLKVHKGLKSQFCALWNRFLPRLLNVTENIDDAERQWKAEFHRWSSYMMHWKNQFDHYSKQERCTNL

The compound `CCOP(=S)(OCC)Oc1nc(Cl)c(Cl)cc1Cl` [CPF, chlorpyrifos] returned an IC50 of 73 µM.
For `COP(=O)(OC)OC=C(Cl)Cl` [DDVP, dichlorvos] the value was 1.25 µM.

As usually defined, the IC50 is the concentration that gives 50% inhibition. Read a low IC50 as higher potency.
